Tests used:
Experiment in all cases: direct labeling of recombinantly expressed proteins by gel-based ABPP (WT vs lysine mutant)
Format in all cases: binding
TPMT = target: T1, TPMT (Homo sapiens, UniProt P51580); details: TPMT K32, KR mutant; 10 μM probe, 1 h
T1 construct: expressed in transfected cells; host or cells: HEK 293T
T1 sequence (P51580 1-245): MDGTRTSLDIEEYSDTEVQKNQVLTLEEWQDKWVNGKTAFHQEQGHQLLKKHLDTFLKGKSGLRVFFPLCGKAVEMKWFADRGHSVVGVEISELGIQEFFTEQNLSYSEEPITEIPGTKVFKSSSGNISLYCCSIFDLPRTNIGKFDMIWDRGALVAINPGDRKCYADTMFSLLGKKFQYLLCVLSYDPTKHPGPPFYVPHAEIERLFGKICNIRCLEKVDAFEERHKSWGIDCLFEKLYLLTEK
Description: (§1) Subcloning and mutagenesis. Unless noted below, genes were amplified from cDNA prepared from low passage HEK 293T cells using the Ribozol RNA extraction reagent (Amresco) and the iScript Reverse Transcription Supermix kit (Bio-Rad). For the following proteins cDNA clones were used for amplification instead: PFKP (5180268, Dharmacon), HK1 (BC008730, transomic), SIN3A (BC137098, transomic), G6PD (BC000337, transomic) and TGIF1 (BC031268, transomic). Mouse CARM1 in pFLAG-CMV-6c was a kind gift from the Mowen lab (TSRI). NUDT2 was obtained as synthesized gene (IDT). DNA was amplified with custom forward and reverse primers using phusion polymerase (NEB, M0530S), digested with the indicated restriction enzyme and ligated into pFLAG-CMV-6c or pRK5 with the appropriate affinity tag. Lysine mutants were generated using QuikChange site-directed mutagenesis using Phusion® High-Fidelity DNA Polymerase and primers containing the desired mutations and their respective complements. The cloning of TTR and its K35A mutant has been described in Choi et al., “Chemoselective small molecules that covalently modify one lysine in a non-enzyme protein in plasma,” Nat. Chem. Biol. 6, 133-139 (2010). TTR was expressed in E. coli and purified as described. For gel-based experiments 1 μM TTR was added into 1 mg ml^−1 soluble MDA-MB-231 lysate.
(§2) Recombinant expression of proteins by transient transfection. HEK 293T cells were grown to 50% confluency in 10 ml DMEM supplemented with 10% fetal bovine serum (FBS), penicillin, streptomycin and glutamine in 10 cm tissue culture dishes. 3 μg of DNA was diluted in 500 μL DMEM and 30 μL of PEI (MW 40,000, 1 mg ml^−1, Polysciences) were added. The mixture was incubated at room temperature for 30 min and added dropwise to the cells. Cells were grown for 48 h at 37° C. with 5% CO2. Cells were washed with cold PBS, scraped with cold PBS and cell pellets were isolated by centrifugation (1,400 g, 3 min, 4° C.), and stored at −80° C. until use. Cell pellets were resuspended in PBS, lysed by sonication and fractionated (100,000 g, 45 min) to yield soluble and membrane fractions. The soluble fraction was adjusted to a final protein concentration of 1 mg ml^−1 for gel-based ABPP experiments.
(§3) Direct labeling of recombinantly expressed proteins by gel-based ABPP. 50 μL of soluble HEK 293T proteome (1 mg ml^−1) expressing the respective protein (WT or KR mutant) or transfected with an empty vector were treated with 10 μM of the indicated probe for 1 h at room temperature. The samples were analyzed as described in the previous section. For quantification of relative labeling of the different protein variants, the intensity of labeling was determined by quantifying the integrated optical intensity of the bands using ImageLab 5.2.1 software (BioRad).

PNPO = target: T2, PNPO (Homo sapiens, UniProt Q9NVS9); details: PNPO K100, KR mutant; 10 μM probe, 1 h
T2 construct: Flag; expressed in transfected cells; host or cells: HEK 293T, transient transfection, soluble lysate
T2 sequence (Q9NVS9 1-261): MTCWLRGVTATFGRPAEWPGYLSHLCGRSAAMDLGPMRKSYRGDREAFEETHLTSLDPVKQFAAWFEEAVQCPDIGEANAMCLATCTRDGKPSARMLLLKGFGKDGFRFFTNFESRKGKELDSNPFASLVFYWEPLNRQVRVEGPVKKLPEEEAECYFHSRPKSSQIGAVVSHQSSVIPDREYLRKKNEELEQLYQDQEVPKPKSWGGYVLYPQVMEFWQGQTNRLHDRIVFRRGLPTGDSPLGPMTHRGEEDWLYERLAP
Description: as §1, §2, §3

FAH = target: T3, FAH (Homo sapiens, UniProt P16930); details: FAH K241, KR mutant; 10 μM probe, 1 h
T3 construct: expressed in transfected cells; host or cells: HEK 293T
T3 sequence (P16930 1-419): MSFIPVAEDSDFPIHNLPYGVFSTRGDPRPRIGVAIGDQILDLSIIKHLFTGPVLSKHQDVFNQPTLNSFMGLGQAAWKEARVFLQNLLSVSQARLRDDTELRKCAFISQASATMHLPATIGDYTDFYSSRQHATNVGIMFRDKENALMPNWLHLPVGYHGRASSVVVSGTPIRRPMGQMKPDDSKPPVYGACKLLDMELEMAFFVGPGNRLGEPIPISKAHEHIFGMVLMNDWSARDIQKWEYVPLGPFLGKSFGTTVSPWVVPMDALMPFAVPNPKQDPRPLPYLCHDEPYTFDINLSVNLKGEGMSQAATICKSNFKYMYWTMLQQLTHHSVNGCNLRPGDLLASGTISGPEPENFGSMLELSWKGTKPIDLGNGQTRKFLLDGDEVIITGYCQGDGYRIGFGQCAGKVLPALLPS
Description: as §1, §2, §3

Compound | labeling of WT vs mutant protein by probe (TPMT) | labeling of WT vs mutant protein by probe (PNPO) | labeling of WT vs mutant protein by probe (FAH)
C#CCCC(=O)Oc1c(F)c(F)c(S(=O)(=O)[O-])c(F)c1F.[Na+] [probe 1, reference compound] | HD (the WT labeled more than the mutant (>4x difference quantified)) | HD (the WT labeled more than the mutant (>4x difference quantified)) | ND (the WT did not label more than the mutant (<2x difference quantified))
C#CCCC(=O)Oc1c(F)c(F)c(F)c(F)c1F [probe 6, Pentafluorophenyl 4-pentynoate] | ND (the WT did not label more than the mutant (<2x difference quantified)) | PD (the WT labeled more than the mutant (>2x difference quantified)) | 
C#Cc1ccc(C(=O)Oc2c(F)c(F)cc(F)c2F)cc1 [probe 12, 2,3,5,6-Tetrafluorophenyl 4-ethynylbenzoate] | ND (the WT did not label more than the mutant (<2x difference quantified)) | PD (the WT labeled more than the mutant (>2x difference quantified)) | PD (the WT labeled more than the mutant (>2x difference quantified))
C#Cc1ccc(C(=O)Oc2c(F)c(F)c(F)c(F)c2F)cc1 [probe 13, Pentafluorophenyl 4-ethynylbenzoate] | ND (the WT did not label more than the mutant (<2x difference quantified)) | ND (the WT did not label more than the mutant (<2x difference quantified)) | 
Cc1cc(C)n2c1C=C1C=CC(CCC(=O)Oc3c(F)c(F)c(S(=O)(=O)[O-])c(F)c3F)=[N+]1[B-]2(F)F.[Na+] [probe 18, reference compound] | HD (the WT labeled more than the mutant (>4x difference quantified)) | PD (the WT labeled more than the mutant (>2x difference quantified)) | PD (the WT labeled more than the mutant (>2x difference quantified))

Reference: patent US20210255193A1, “LYSINE REACTIVE PROBES AND USES THEREOF” (The Scripps Research Institute, priority 2017, published 2021)
